Patent publication US8552013B2, “Heterocyclic compounds based on N6-substituted adenine, methods of their preparation, their use for preparation of drugs, cosmetic preparations and growth regulators, pharmaceutical preparations, cosmetic preparations and growth regulators containing these compounds” (USTAV Experimentalni Botaniky Akademie Ved Ceske Republiky, priority 2001, dated 2013)
pIC50: −log10 of the molar value.

Experiments:
[1] = tested on: Amaranthus caudatus cotyledon/hypocotyl explants; assay: Amaranthus bioassay, betacyanin content; type: in vivo; conditions: betacyanin content at the concentration with highest activity
HOS = assay: Calcein AM cytotoxicity, HOS; type: cell-based; conditions: Homo sapiens, HOS, 72 h
[2] = tested on: tobacco callus Nicotiana tabacum L. cv. Wisconsin 38; assay: Cytokinin-dependent tobacco callus growth; type: cell-based; conditions: fresh callus weight at the concentration with highest activity
[3] = tested on: Triticum aestivum cv. Hereward leaf tips; assay: Retention of chlorophyll in excised wheat leaf tips; type: in vivo; conditions: chlorophyll retention at the concentration with highest activity
How it was run: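 Tips of first leaves from 7-day wheat (cv. Hereward) seedlings kept on compound solutions (10^−8 to 10^−4 M, from DMSO stock) for 96 h in the dark at 25 °C. Chlorophyll extracted in 80% ethanol at 80 °C and read at 665 nm. Activity at the best concentration expressed relative to 10^−4 M BAP (100%), five replicates.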

Compound	activity (%) [10^−5 mol · l^−1 BAP = 100%] [1]	pIC50 (HOS)	Activity (%) [10^−4 mol · l^−1 BAP = 100%] [2]	Activity (%) [10^−4 mol · l^−1 BAP = 100%] [3]
Fc1ccccc1CNc1ncnc2nc[nH]c12 [6-(2-fluorobenzylamino)purine]	116 (±3) %	< 3.78	111 (±21) %	169 (±20) %
Cc1ccccc1CNc1ncnc2nc[nH]c12 [6-(2-methylbenzylamino)purine]	98 (±22) %	< 3.78	118 (±3) %	158 (±29) %
Fc1cccc(CNc2ncnc3nc[nH]c23)c1 [6-(3-fluorobenzylamino)purine]	140 (±5) %	< 3.78	135 (±8) %	200 (±25) %
Ic1cccc(CNc2ncnc3nc[nH]c23)c1 [6-(3-iodobenzylamino)purine]	79 (±3) %	< 3.78	76 (±8) %	83.5 (±23) %
COc1cccc(CNc2ncnc3nc[nH]c23)c1 [6-(3-methoxybenzylamino)purine]	90 (±16) %	< 3.78	76 (±20) %	178 (±16) %
Cc1ccc(CNc2ncnc3nc[nH]c23)cc1 [6-(4-methylbenzylamino)purine]	26 (±10) %	< 3.78	52 (±8) %	35 (±23) %
Oc1cccc(CNc2ncnc3nc[nH]c23)c1 [meta-topolin, 6-(3-hydroxybenzylamino)purine]		< 3.78		
Oc1ccccc1CNc1ncnc2nc[nH]c12 [ortho-topolin, 6-(2-hydroxybenzylamino)purine]		< 3.78		
